Laboratory results published in paper PMC12280724 (Frontiers in Pharmacology, 2025).

What was measured:
[1] = In vivo biodistribution of [^99mTc]Tc-carvedilol in healthy Swiss albino mice; conditions: for [^99mTc]Tc-carvedilol percentages of injected dose per Gram organ: i.v. tail vein
Excerpt: For biodistribution and receptor occupancy studies, 24 healthy adult Swiss albino mice (12 males and 12 females, aged 10–12 weeks, weighing 25–30 g) were obtained from the Egyptian National Research Center. Mice outside the 25–30 g weight range were excluded to ensure consistency in the biodistribution outcomes. Prior to the study, animals were housed in groups of four with ad libitum access to food and water and underwent a 2-week acclimatization period. After this adaptation phase, the mice were randomly assigned to the study groups using the lot-drawing method.
Given ^99mTc’s physical half-life of approximately 6 h, shorter imaging and sampling intervals are generally preferred to maximize radioactive signal fidelity and minimize decay-related variability. At 24 h post-injection, the residual ^99mTc activity could fall below quantifiable thresholds, potentially compromising the precision of biodistribution data. To prevent this, all data collection was restricted to early post-injection intervals—specifically […]—when radioactivity levels remain within optimal detection ranges for gamma counting. By omitting the 24 h time point altogether, the study design ensured that the radiotracer signal would be robust enough to yield statistically reliable biodistribution profiles without being confounded by the isotope’s exponential decay. Additionally, prior pilot studies were conducted to empirically determine the time window during which the radiochemical integrity and quantification signal-to-noise ratio remained analytically valid. These informed the exclusion of late-phase sampling and reinforced confidence in the reliability of kinetic data collected within the defined 6 h observation window. Therefore, six mice were euthanized at each selected time point via standardized cervical dislocation performed by trained personnel in accordance with institutional animal care guidelines. The procedure followed the AVMA Guidelines for the Euthanasia of Animals ([Kirkwood, 2013]), ensuring it was rapid, humane, and reproducible. To ensure procedural consistency, all cervical dislocations were performed by the same experienced researcher, following pre-established protocols that involved correct animal positioning, anatomical landmark identification, and verification of death through cessation of heartbeat and respiration. Immediately postmortem, body weight was recorded, and blood was collected via cardiac puncture.
Organ harvesting included the collection of the heart, liver, lungs, kidneys, spleen, stomach, intestines, muscle (right leg), bone, and brain. Following dissection, tissues were gently rinsed with isotonic saline to remove residual blood, promptly weighed, kept at low temperatures, and immediately subjected to gamma counting to preserve radiochemical integrity and avoid post-collection decay artifacts. No storage or freezing was used to prevent degradation or leakage of [^99mTc]Tc-carvedilol. Sample processing occurred in a shielded, on-site laboratory adjacent to the dissection area, ensuring minimal delay—typically less than 2 to 3 minutes—between collection and measurement.
To ensure methodological rigor and reproducibility, both experimental and computational components of the study were supported by a structured statistical framework. A total of 24 healthy albino mice (12 males, 12 females), aged 10–12 weeks and weighing 25 ± 3 g, were selected based on uniform health status, age, and weight to minimize inter-animal variability. Animals were maintained under controlled laboratory conditions (12-h light/dark cycle, standardized humidity, and temperature) with unrestricted access to food and water. For biodistribution analysis, animals were randomly assigned to four experimental groups, each consisting of six mice, each representing a distinct post-injection time point (15, 30, 60, and 120 min). […]

[2] = In vitro stability in human serum at 37 °C; assay type: in vitro ADME; conditions: at 24 h
Description: Aliquots (0.2 mL) were withdrawn at predefined intervals and analyzed using a paper chromatographic technique ([Rathmann et al., 2019]). Chromatographic separation was carried out using a Shimadzu system ([Shimadzu Corporation]) (Genzo Shimadzu Sr., Kyoto, Japan), comprising LC-9A pumps, a Rheodyne injector (Model 7125), and an ultraviolet spectrophotometer detector (SPD-6A, Shimadzu). The mobile phase consisted of acetonitrile and water (65:35) containing 0.1% trifluoroacetic acid, delivered at a flow rate of 1.0 mL/min. […] Separated fractions were collected for up to 12 min, and the radiochemical integrity was subsequently evaluated using a well-type NaI(Tl) ([Al Oraini, 2018]) detector linked to a single-channel analyzer.

## COc1ccccc1OCC[N]1CC(COc2cccc3[nH]c4ccccc4c23)[O][99Tc]12(=[O])[O]C(COc1cccc3[nH]c4ccccc4c13)C[N]2CCOc1ccccc1OC (racemic) [[^99mTc]Tc-carvedilol]
[1]; Kidneys, 60 min post-injection
  [^99mTc]Tc-carvedilol percentages of injected dose per Gram organ: 24.392 ± 0.345 % ID/g organ
[1]; Kidneys, 120 min post-injection
  [^99mTc]Tc-carvedilol percentages of injected dose per Gram organ: 29.284 ± 0.012 % ID/g organ
[1]; Liver row, 15 min post-injection
  Residual [^99mTc]Tc-carvedilol percentages of injected dose per Gram in non-targeted organs: 92.740 ± 0.03 % ID/g
[1]; Liver row, 30 min post-injection
  Residual [^99mTc]Tc-carvedilol percentages of injected dose per Gram in non-targeted organs: 95.149 ± 0.01 % ID/g
[1]; Liver row, 120 min post-injection
  Residual [^99mTc]Tc-carvedilol percentages of injected dose per Gram in non-targeted organs: 93.895 ± 0.04 % ID/g
[1]; Liver, 15 min post-injection
  [^99mTc]Tc-carvedilol percentages of injected dose per Gram organ: 7.255 ± 0.023 % ID/g organ
[1]; Liver, 30 min post-injection
  [^99mTc]Tc-carvedilol percentages of injected dose per Gram organ: 4.841 ± 0.568 % ID/g organ
[1]; Liver, 120 min post-injection
  [^99mTc]Tc-carvedilol percentages of injected dose per Gram organ: 6.045 ± 1.020 % ID/g organ
[1]; Lung row, 15 min post-injection
  Residual [^99mTc]Tc-carvedilol percentages of injected dose per Gram in non-targeted organs: 98.710 ± 0.01 % ID/g
[1]; Lung row, 30 min post-injection
  Residual [^99mTc]Tc-carvedilol percentages of injected dose per Gram in non-targeted organs: 92.205 ± 0.01 % ID/g
[1]; Lung row, 60 min post-injection
  Residual [^99mTc]Tc-carvedilol percentages of injected dose per Gram in non-targeted organs: 95.410 ± 0.00 % ID/g
[1]; Lung row, 120 min post-injection
  Residual [^99mTc]Tc-carvedilol percentages of injected dose per Gram in non-targeted organs: 95.371 ± 0.04 % ID/g
[1]; Lung, 15 min post-injection
  [^99mTc]Tc-carvedilol percentages of injected dose per Gram organ: 1.290 ± 0.232 % ID/g organ
[1]; Lung, 30 min post-injection
  [^99mTc]Tc-carvedilol percentages of injected dose per Gram organ: 7.795 ± 0.060 % ID/g organ
[1]; Lung, 60 min post-injection
  [^99mTc]Tc-carvedilol percentages of injected dose per Gram organ: 4.590 ± 0.000 % ID/g organ
[1]; Lung, 120 min post-injection
  [^99mTc]Tc-carvedilol percentages of injected dose per Gram organ: 4.579 ± 0.111 % ID/g organ
[1]; Muscle row, 15 min post-injection
  Residual [^99mTc]Tc-carvedilol percentages of injected dose per Gram in non-targeted organs: 99.309 ± 0.02 % ID/g
[1]; Muscle row, 30 min post-injection
  Residual [^99mTc]Tc-carvedilol percentages of injected dose per Gram in non-targeted organs: 99.727 ± 0.01 % ID/g
[1]; Muscle row, 60 min post-injection
  Residual [^99mTc]Tc-carvedilol percentages of injected dose per Gram in non-targeted organs: 99.321 ± 0.02 % ID/g
[1]; Muscle row, 120 min post-injection
  Residual [^99mTc]Tc-carvedilol percentages of injected dose per Gram in non-targeted organs: 98.449 ± 0.03 % ID/g
[1]; Muscle, 15 min post-injection
  [^99mTc]Tc-carvedilol percentages of injected dose per Gram organ: 0.671 ± 0.195 % ID/g organ
[1]; Muscle, 30 min post-injection
  [^99mTc]Tc-carvedilol percentages of injected dose per Gram organ: 0.263 ± 0.215 % ID/g organ
[1]; Muscle, 60 min post-injection
  [^99mTc]Tc-carvedilol percentages of injected dose per Gram organ: 0.659 ± 0.217 % ID/g organ
[1]; Muscle, 120 min post-injection
  [^99mTc]Tc-carvedilol percentages of injected dose per Gram organ: 1.521 ± 0.201 % ID/g organ
[1]; Spleen row, 15 min post-injection
  Residual [^99mTc]Tc-carvedilol percentages of injected dose per Gram in non-targeted organs: 98.118 ± 0.02 % ID/g
[1]; Spleen row, 30 min post-injection
  Residual [^99mTc]Tc-carvedilol percentages of injected dose per Gram in non-targeted organs: 95.816 ± 0.01 % ID/g
[1]; Spleen row, 60 min post-injection
  Residual [^99mTc]Tc-carvedilol percentages of injected dose per Gram in non-targeted organs: 93.319 ± 0.05 % ID/g
[1]; Spleen row, 120 min post-injection
  Residual [^99mTc]Tc-carvedilol percentages of injected dose per Gram in non-targeted organs: 97.701 ± 0.02 % ID/g
[1]; Spleen, 15 min post-injection
  [^99mTc]Tc-carvedilol percentages of injected dose per Gram organ: 1.852 ± 0.151 % ID/g organ
[1]; Spleen, 30 min post-injection
  [^99mTc]Tc-carvedilol percentages of injected dose per Gram organ: 4.174 ± 0.019 % ID/g organ
[1]; Spleen, 60 min post-injection
  [^99mTc]Tc-carvedilol percentages of injected dose per Gram organ: 6.631 ± 0.019 % ID/g organ
[1]; Spleen, 120 min post-injection
  [^99mTc]Tc-carvedilol percentages of injected dose per Gram organ: 2.279 ± 0.126 % ID/g organ
[1]; Stomach row, 15 min post-injection
  Residual [^99mTc]Tc-carvedilol percentages of injected dose per Gram in non-targeted organs: 98.807 ± 0.01 % ID/g
[1]; Stomach row, 30 min post-injection
  Residual [^99mTc]Tc-carvedilol percentages of injected dose per Gram in non-targeted organs: 98.433 ± 0.04 % ID/g
[1]; Stomach row, 60 min post-injection
  Residual [^99mTc]Tc-carvedilol percentages of injected dose per Gram in non-targeted organs: 95.706 ± 0.03 % ID/g
[1]; Stomach row, 120 min post-injection
  Residual [^99mTc]Tc-carvedilol percentages of injected dose per Gram in non-targeted organs: 97.717 ± 0.06 % ID/g
[1]; Stomach, 15 min post-injection
  [^99mTc]Tc-carvedilol percentages of injected dose per Gram organ: 1.193 ± 0.201 % ID/g organ
[1]; Stomach, 30 min post-injection
  [^99mTc]Tc-carvedilol percentages of injected dose per Gram organ: 1.524 ± 0.259 % ID/g organ
[1]; Stomach, 60 min post-injection
  [^99mTc]Tc-carvedilol percentages of injected dose per Gram organ: 4.263 ± 0.259 % ID/g organ
[1]; Stomach, 120 min post-injection
  [^99mTc]Tc-carvedilol percentages of injected dose per Gram organ: 2.239 ± 0.065 % ID/g organ
[2]
  serum stability: > 92%
